Where “and” joins values, the source holds several entries; their conditions need not be identical. Equal entries are not always repeated. Where two headings read alike, the source gives them in different places.

One may read the IC25 as the concentration at which the effect reaches the 25% level. High values mean a need for much substance, low ones an effect from little substance. The term IC75 denotes the point of the concentration-response curve where the effect stands at 75%. Lower therefore signals greater potency.

Assay [1] deals with AML (Acute myeloid leukemia) PDCs, M4 subtype (SB 33866). Nature of the assay: Anti-proliferation assay on AML PDCs. The following applies: for Inhibitory Concentration IC75 / Inhibitory Concentration IC25 / IC50: AML cells (M4); for Inhibitory Concentration IC25: calculated using IC50 and hill slope; for IC50: read-out: Inhibitory Concentration IC50; for inhibition at 10 µM: assay drug control @ 10 uM. It counts as cell-based, human. Here is the method: Anti-proliferation assays were performed on 6 types of primary patient-derived cancer cells (PDCs) from 6 different human donors, as described in Table 1:
Tests were performed in 384-well plates (24×16), using 1250 to 10,000 cells/well depending on the size and proliferation rate of different PDCs, in 30 ul of culture media (DMEM/F12 with serum and growth factors), with control wells set aside on each plate for media alone (4 wells), untreated PDCs (4 wells), and for PDCs treated with 10 ul of a known anti-cancer drug as a control. […] The outermost rows/columns of the plates were filled with PBS (pH 7.4) to avoid an edge-effect and were considered as blanks.
Standardized aqueous extracts identified in Table 2 were prepared in main stock solutions by dissolving 1 mg of extract in 1 ml PBS (phosphate-buffered saline, pH 7.4).
Anti-Proliferation Assay Protocol: 30 ul of cells were plated at the density of 1250 to 10,000 cells/well. The plate was incubated in a CO2 incubator for 0/N incubation for 24 hours. […] Final assay concentrations of made from stock solutions of standardized aqueous extracts identified in Table 2 were 100 ug/ml, 30 ug/ml, and 10 ug/ml. Since 10 ul extract was added to 30 ul of cell suspension, it diluted 4 times, so to maintain the final assay concentrations, 4× concentrated extract solutions (400 ug/ml, 120 ug/ml, and 40 ug/mo) were prepared from main stock (1 mg/ml) and added to the plate. In all experiments, 10 ul of 4 times concentrated stock (4×) was added to wells containing 30 ul of cell suspension to achieve final assay concentrations at 1X.
Once extracts were added to incubated cells and mixed gently, the plate was given a brief spin and incubated in the CO2 incubator for 72 hours. The plate was removed from the incubator and 10 ul of detection reagent (CellTiterGlo®; Promega Corporation, Wisconsin, USA) added to each well of the 384 well plate. The plate was incubated (10 min) and luminescence counts measured, with luminescence produced proportional to the number of viable (living, metabolically active) cells for each assay. The assay described above is a two-dimensional (2D) assay.
In this Example, AML drugs were used as disease specific controls.
As discussed above in Example I, 6 extracts (Ayuflex®, Capros®, Phyto-BGS®, PrimaVie®, Sensoril®, and Ayuric®) were tested on AML PDC-SB cells (33866, M-4 type, subject) at 3 concentrations: 100 ug/ml, 30 ug/ml, and 10 ug/ml.

For assay [2], the system named is AML cell line HL60. Nature of the assay: Anti-proliferation assay on HL60 AML cells. It counts as cell-based. The note with it: for IC25 / IC75: potential dosing for further experiments. Here is the method:
2500 cells were plated per well in 384 well plates. […] CellTiter Glo was used as a detection reagent. Extracts were incubated with the AML HL60 cells for 72 hours.

The subject of assay [3] is Glioma SB 32833 Glioblastoma Grade IV patient derived cells. Nature of the assay: Anti-proliferation assay on glioma PDCs SB 32833. It counts as cell-based. The note with it: Homo sapiens; for inhibition at 10 µM: drug @ 10 uM; for inhibition at 100 µM: Temozolomide @ 100 uM. On the procedure: The anti-cancer activity of AyuFlex®, Capros®, and Ayuric® was further tested on two other glioma PDCs taken from 2-3 different subjects (SB 6129, SB 32833 (person)). […] Also, the anti-cancer activity of AyuFlex®, Capros®, and Ayuric® was further tested on existing glioblastoma cell line U87 MG, to allow comparisons with other compositions known in the art. AyuFlex®, Capros®, and/or Ayuric® were incubated with the new PDC lines and the U87 MG cell line for 72 hours, as described in Example I above.
Table 68 relates to FIG. 31, a graph showing the efficacy of AyuFlex®, Capros®, and/or Ayuric® on Glioma SB 32833 Glioblastoma Grade IV patient derived cells, in a combination study.

Assay [4] concerns Breast Cancer PDCs, ER/PR+ Her2 equivocal (HR+). Nature of the assay: Anti-proliferation assay on breast cancer HR+ PDCs. In kind it is cell-based, human. The note with it: drug alone @ 10 uM; for inhibition at 10 µM: Homo sapiens. On the procedure: (§1) The outermost rows/columns of the plates were filled with PBS (pH 7.4) to avoid an edge-effect and were considered as blanks. Standardized aqueous extracts identified in Table 2 were prepared in main stock solutions by dissolving 1 mg of extract in 1 ml PBS (phosphate-buffered saline, pH 7.4). […] The plate was incubated in a CO2 incubator for 0/N incubation for 24 hours. […] Once extracts were added to incubated cells and mixed gently, the plate was given a brief spin and incubated in the CO2 incubator for 72 hours. The plate was removed from the incubator and 10 ul of detection reagent (CellTiterGlo®; Promega Corporation, Wisconsin, USA) added to each well of the 384 well plate. […] The assay described above is a two-dimensional (2D) assay.

Assay [5] has as its system Glioma PDCs (Glioblastoma Grade IV). Nature of the assay: Anti-proliferation assay (CellTiterGlo, 72 h) on glioma PDCs. It counts as cell-based, human. Here is the method:
as §1
For orientation: ATP-based viability assays read luminescence as a measure of living cells.

In assay [6] the test system is Breast Cancer PDCs, Triple negative (TN), SB 36344. Nature of the assay: Anti-proliferation assay on breast cancer TN PDCs. It counts as cell-based, human. The following applies: drug alone @ 10 uM; for inhibition at 10 µM: Homo sapiens. On the procedure:
as §1

Assay [7] concerns Breast Cancer PDCs, ER/PR− Her2+ (Her2+). Nature of the assay: Anti-proliferation assay on breast cancer Her2+ PDCs. It counts as cell-based, human. The note with it: drug alone @ 10 uM; for inhibition at 10 µM: Homo sapiens. On the procedure: as §1
Setting [8] is: read-out: % Inhibition, single replicates.

Turning to `Nc1ccn([C@@H]2O[C@H](CO)[C@@H](O)[C@@H]2O)c(=O)n1` [Cytarabine, cytarabine], in assay [1], the “Inhibitory Concentration IC75” value turned out to be 0.47 µM. Further, the “Inhibitory Concentration IC25” value in assay [1] is 0.023 µM. Moreover, the inhibition at 3 µM is 99% in assay [1] (Homo sapiens, drug alone 3 uM, read-out: inhibition of AML proliferation); 99% in assay [1] (Homo sapiens, drug alone @ 3 uM, read-out: % Inhibition Avg); 99% in assay [1] (Homo sapiens, drug alone @ 3 uM, read-out: % Inhibition n1); 99% in assay [1] (Homo sapiens, drug alone @ 3 uM, read-out: % Inhibition n2); 99% in assay [1] (Homo sapiens, drug alone @ 3 uM, read-out: % Inhibition n3); at least 90% in assay [2] (Homo sapiens, HL-60). The IC50 in assay [1] (Homo sapiens) was 0.104 µM; in assay [2] (Homo sapiens, HL-60, dose-response curve, FIG. 35) it was 0.567 µM. The same molecule had an IC25 in assay [2] (HL60 AML cells) of 0.298 µM. The molecule further had an IC75 in assay [2] (HL60 AML cells) of 1.08 µM.
Turning to `CS(=O)(=O)N1CCN(Cc2cc3nc(-c4cccc5[nH]ncc45)nc(N4CCOCC4)c3s2)CC1` [GDC-0941, pictilisib], the inhibition at 10 µM in assay [1] (Homo sapiens, read-out: % Inhibition Avg) is 59%; in assay [1] (Homo sapiens, read-out: % Inhibition n1), 56%; in assay [1] (Homo sapiens, read-out: % Inhibition n2), 63%; in assay [3] (read-out: % Inhibition Avg) it was 100%; in assay [3] (read-out: % Inhibition n1), 100%; in assay [3] (read-out: % Inhibition n2) it was 100%. The inhibition at 10 µM in assay [3] (read-out: % Inhibition n3) stood at 100%; in assay [4] (read-out: % Inhibition Avg), 68%; in assay [4] (setting [8]) it was 70%; in assay [5] (Homo sapiens, drug alone @ 10 uM, read-out: % Inhibition Avg) it was 81%; in assay [5] (Homo sapiens, drug alone @ 10 uM, read-out: % Inhibition, single replicates) it was 83%; in assay [6] (read-out: % Inhibition Avg) it was 83%. The inhibition at 10 µM in assay [6] (setting [8]) was determined as 84%; in assay [7] (read-out: % Inhibition Avg), 70%; in assay [7] (setting [8]), 71%. Moreover, the “% Inhibition, single replicates” value in assay [4] (10 µM) came to 67%; in assay [5] (drug alone @ 10 uM, 10 µM), 79%; in assay [6] (10 µM) it was 82%; in assay [7] (10 µM), 69%.
On to `Cn1nnc2c(C(N)=O)ncn2c1=O` [Temozolomide, temozolomide], for which the inhibition at 100 µM stood at 27% in assay [3] (read-out: % Inhibition Avg); 41% in assay [3] (read-out: % Inhibition n1); 21% in assay [3] (read-out: % Inhibition n2); 18% in assay [3] (read-out: % Inhibition n3); 32% in assay [5] (Homo sapiens, Temozolomide alone @ 100 uM, read-out: % Inhibition Avg); 41% in assay [5] (Homo sapiens, Temozolomide alone @ 100 uM, read-out: % Inhibition, single replicates). In assay [5] (Homo sapiens, Temozolomide alone @ 30 uM), this molecule yielded an inhibition at 30 µM of 24%. Besides, the inhibition at 300 µM in assay [5] (Homo sapiens, Temozolomide alone @ 300 uM, read-out: % Inhibition Avg) was 19%; in assay [5] (Homo sapiens, Temozolomide alone @ 300 uM, read-out: % Inhibition, single replicates), 28%. Further, the “% Inhibition, single replicates” value is 16% and 15% in assay [5] (Temozolomide alone @ 30 uM, 30 µM); 27% and 29% in assay [5] (Temozolomide alone @ 100 uM, 100 µM); 14% and 15% in assay [5] (Temozolomide alone @ 300 uM, 300 µM).
Consider arsenic trioxide, for which, in assay [1], the “Inhibitory Concentration IC75” value was 6.45 µM, the “Inhibitory Concentration IC25” value was 1.38 µM and the IC50 worked out at 2.99 µM. Besides, in assay [1] (drug alone 3 uM), the “inhibition of AML proliferation” value was determined as 97%. In assay [1] (drug alone @ 3 uM), the “% Inhibition Avg” value came out at 97%, the “% Inhibition n1” value was 97%, the “% Inhibition n2” value was 97% and the “% Inhibition n3” value was 97%. In assay [2] (HL60 AML cells), the IC50 is 2.43 µM, the IC25 was 1.72 µM and the IC75 was 3.01 µM. Also, the IC50 in assay [2] (dose-response curve, FIG. 35) came to 2.3 µM.
